Where two headings read alike, the source gives them in different places. Marks after values point to notes of the source that are not given here.
Tests used:
normal mice = assay: Intraperitoneal glucose tolerance test (IPGTT) in normal mice; type: in vivo, C57BL/6J mice; conditions: for hypoglycemic effects: oral, normal mice IPGTT; for Blood glucose concentration: mean±SEM
Method: In this example, in vivo IPGTT is used to validate the blood glucose lowering activity of compound 1 (purity 70%). Twenty-four (24) six weeks old C57BL/6J mice are fed normal diets in an environment of 12/12 light-dark cycles and a constant temperature controlled at 24±2° C. with an unlimited supply of water and food. The mice are divided into four groups of six each, including a control group and three compound 1 (purity 70%) groups. The three compound 1 groups are respectively given orally compound 1 at dosages of 40 mg/Kg, 60 mg/Kg, and 80 mg/Kg. Mice fasted overnight are allowed to eat for 1 hour. After feeding, wait for another hour before giving the test drugs. Thirty (30) minutes after drug administration, glucose at a dose of 1.5 g/kg body weigh is injected intraperitoneally. Blood glucose levels are measured before the glucose injection (0 minutes), as well as at 30, 60 and 90 minutes after the glucose injection, to observe the blood glucose level change curves.
As shown in FIG. 5 and summarized in the Table below, data are expressed as mean±standard error (SEM). P values are calculated using the t test in the Sigma statistical software, wherein p<0.05 is considered significant and marked as *; p<0.01 is considered highly significant and is marked as **; and p≦0.001 is considered extremely significant and marked as ***.

RINm5F cells = assay: Insulin secretion tests in rat pancreatic beta cells RINm5F; type: cell-based; conditions: 2 hours, FIG. 4; for insulin secretion with exendin-4: 16 mM glucose, ELISA; for effect on insulin secretion in the absence of exendin-4: no exendin-4, 16 mM glucose
Method: Rat pancreatic beta cell line RINm5F was purchased from the Food Industry Research and Development Institute (Hsinchu, Taiwan), No. BCRC 60410; source: ATCC CRL-11 605. The cells are cultured in 10% FBS RPMI-1640 medium, in a constant temperature CO2 incubator, under 5% CO2, 37° C. and 95% humidity, for subsequent experiments.
To each 96-well plate, add the RINm5F cells (8×10^5 cells/well) and culture the cells for 2 days before the experiments. Before testing, remove the culture medium. To each well in the 96-well plates, add 100 ul of KRPH buffer (136 mM NaCl, 4.8 mM KCl, 1.2 mM CaCl2, 1.2 mM KH2PO4, 1.2 mM MgSO4, 5 mM NaHCO3, 10 mM HEPES), 2.8 mM D-glucose, 0.2% bovine serum albumin, pH 7.4, placed in a CO2 incubator at 37° C. for 30 minutes, to allow the pancreatic islet cells to acclimate to the medium change (from RPMI 1640 to KRPH buffer). Remove the 96-well plates from the incubator. […] Incubate the cells in KRPH buffer and glucose (KRPH +0.2% BSA, 16 mM glucose) containing culture medium for 2 hours to allow for insulin secretion by the islet beta cells under glucose stimulation. The supernatants from the incubation are collected and the concentrations of insulin released in the wells are assayed using ELISA. Various insulin ELISA kits are available from commercial sources, such as Calbiotech (Spring Valley, Calif.), Crystal Chem., Inc. (Downers Grove, Ill.), and Mercodia (Uppsala, Sweden).
Two days after inoculating RINm5F cells, about 8×10^5 cells/well in 96-well plates, add the active ingredients, compounds 1, 2, and 3, from wild ginger flower 95% ethanol extracts, to the cells. […] After 2 hours, the insulin contents in the supernatants are assessed using insulin ELISA kits.

GLP-1 receptor = target: T1, GLP-1 receptor (Homo sapiens, UniProt P43220); assay: Receptor arrestin translocation assay (GLP-1 potentiator activity, U2OS cells transfected with GLP-1 receptor gene); type: cell-based
T1 construct: expressed in transfected cells; host or cells: U2OS (human bone osteosarcoma)
Method: For example, these cells may be plated as monolayer on a test plate (e.g., a 384-well plate). The cells, for example, may be plated at a density of 4000 cells per well. The test sample concentrations may be 0.2-0.000002 mg/ml. The test volumes may be 25 microliter, and the test time may be 1 hr.
GLP-1 receptors are G-protein coupled receptors with seven transmembrane domains. After activation by hormones or neural stimulants, many G-protein coupled cell surface receptors will internalize from the cell surface to the cytoplasm in endocytosis responses. […] This process may be used to assay the test samples. The extents of receptor endocytosis are closely related to the concentrations of the test samples—the higher the sample concentrations, the stronger the endocytosis responses. Because the densities of cell surface receptors are fixed, when the sample concentrations reach a high number, the extents of endocytosis responses would not increase with increasing sample concentrations, i.e., the response reaches saturation. Based on the concentrations and saturation measurements, one can determine the receptor binding affinities of the test samples.
After activation of G-protein coupled receptors, the receptors are typically desensitized or inactivated. Arrestin is involved in such desensitization or inactivation processes. That is, arrestin will be recruited to the GPCR to desensitize or inactivate the receptors. Therefore, monitoring the translocation of GFP-tagged arrestin from the cytosol to the activated GPCRs on the plasma membrane would allow one to measure the binding of test compounds to the receptor target. (Hudson et al., “High-content screening of know G protein-coupled receptors by arrestin translocation,” Methods Enzymol., 414: 63-78 (2006)).
Using this assay, the following test samples have been assessed: (a) compound 1 (MW 318), (b) compound 2 (MW 318), (c) compound 3 (MW 334), (d) compound 5 (MW 304), (e) compound 6 (MW 376). […] When the sample concentrations reach certain high concentrations, the extents of endocytosis responses will not further increase with increasing sample concentrations because the responses have reached saturation.
Based on the binding curves and saturation measurements as a function of test sample concentrations, the receptor affinities of the test samples can be determined.

T1 sequence (P43220 24-463, species assumed): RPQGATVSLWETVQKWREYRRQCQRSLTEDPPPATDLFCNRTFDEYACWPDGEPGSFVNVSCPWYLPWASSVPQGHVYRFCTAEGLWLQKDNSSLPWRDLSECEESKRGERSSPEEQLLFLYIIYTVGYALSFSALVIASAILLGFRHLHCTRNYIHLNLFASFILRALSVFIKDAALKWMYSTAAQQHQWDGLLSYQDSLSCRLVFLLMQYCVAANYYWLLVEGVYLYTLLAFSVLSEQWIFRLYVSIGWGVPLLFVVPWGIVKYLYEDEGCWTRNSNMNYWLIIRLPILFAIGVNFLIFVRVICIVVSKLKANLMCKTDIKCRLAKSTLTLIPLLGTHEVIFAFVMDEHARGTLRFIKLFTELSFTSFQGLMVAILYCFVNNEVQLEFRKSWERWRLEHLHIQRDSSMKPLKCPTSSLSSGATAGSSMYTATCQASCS

**Q.** With `CC1(C)CCC[C@]2(C)[C@H]3CC=C(C=O)C[C@@H](O)[C@]3(C=O)CC[C@@H]12` [Compound 1, Galanal B] as the molecule, how does the hypoglycemic effects (normal mice; 40 mg/Kg group) read?
**A.** The hypoglycemic effects was 41%.

**Q.** And the Blood glucose concentration (normal mice; 40 mg/kg oral, compound 1 purity 70%, 0 minute (before glucose injection))?
**A.** Its Blood glucose concentration is 120.5 ± 3.8 mg/dL.

**Q.** And the Blood glucose concentration (normal mice; 40 mg/kg oral, purity 70%, 30 minute after glucose 1.5 g/kg i.p.)?
**A.** Its Blood glucose concentration is 168.2 ± 3.0** mg/dl.

**Q.** And the Blood glucose concentration (normal mice; 40 mg/kg oral, purity 70%, 60 minute after glucose)?
**A.** Its Blood glucose concentration is 127.0 ± 4.4 mg/dL.

**Q.** What about the Blood glucose concentration (normal mice; 40 mg/kg oral, purity 70%, 90 minute after glucose) of the same molecule?
**A.** Its Blood glucose concentration is 117.3 ± 3.4 mg/dL.

**Q.** And the hypoglycemic effects (normal mice; 60 mg/Kg group)?
**A.** The hypoglycemic effects was 45%.

**Q.** What about the Blood glucose concentration (normal mice; 60 mg/kg oral, purity 70%, 0 minute (before glucose injection)) of the same molecule?
**A.** Its Blood glucose concentration is 121.5 ± 3.7 mg/dL.

**Q.** What about the Blood glucose concentration (normal mice; 60 mg/kg oral, purity 70%, 30 minute after glucose) of the same molecule?
**A.** The Blood glucose concentration was 169.2 ± 3.6** mg/dl.

**Q.** What about the Blood glucose concentration (normal mice; 60 mg/kg oral, purity 70%, 60 minute after glucose) of the same molecule?
**A.** Its Blood glucose concentration is 128.0 ± 4.0 mg/dL.

**Q.** What about the Blood glucose concentration (normal mice; 60 mg/kg oral, purity 70%, 90 minute after glucose) of the same molecule?
**A.** The Blood glucose concentration was 111.3 ± 2.9* mg/dl.

**Q.** And the hypoglycemic effects (normal mice; 80 mg/Kg group)?
**A.** The hypoglycemic effects was 71%.

**Q.** What about the Blood glucose concentration (normal mice; 80 mg/kg oral, purity 70%, 0 minute (before glucose injection)) of the same molecule?
**A.** The Blood glucose concentration was 120.8 ± 3.7 mg/dL.

**Q.** And the Blood glucose concentration (normal mice; 80 mg/kg oral, purity 70%, 30 minute after glucose)?
**A.** The Blood glucose concentration was 154.0 ± 2.5*** mg/dl.

**Q.** And the Blood glucose concentration (normal mice; 80 mg/kg oral, purity 70%, 60 minute after glucose)?
**A.** The Blood glucose concentration was 120.3 ± 1.8** mg/dl.

**Q.** And the Blood glucose concentration (normal mice; 80 mg/kg oral, purity 70%, 90 minute after glucose)?
**A.** The Blood glucose concentration was 106.7 mg/dL.

**Q.** And the “insulin secretion with exendin-4” value (RINm5F cells; exendin-4 2 nM)?
**A.** Its value is “stimulate more insulin secretions”.

**Q.** And the “effect on insulin secretion in the absence of exendin-4” value (“effect on insulin secretion” for short) (RINm5F cells)?
**A.** Its value is “substantially abolished”.

**Q.** And the EC50 (GLP-1 receptor; GLP-1 4-8 nM constant, U2OS cells expressing GLP-1R, FIG. 3)?
**A.** Its EC50 is 6.603 µg/mL.

**Q.** For `C=C1CCC2C(C)(C)CCC[C@]2(C)C1C1C=C(C=O)CC(O)O1` (stereo partly drawn) [Compound 2, 11-hydroxy-8(17),12(E)-labdadien-15,16-dial 11,15-hemiacetal], which “insulin secretion with exendin-4” value (RINm5F cells; exendin-4 5 nM) is on record?
**A.** The value was “stimulate more insulin secretions”.

**Q.** And the “effect on insulin secretion” value (RINm5F cells)?
**A.** Its value is “substantially abolished”.

**Q.** What about the EC50 (GLP-1 receptor; read-out: EC50 (converted)) of the same molecule?
**A.** The EC50 was 13.9 µM.

**Q.** For `C=C1CCC2C(C)(C)CCC[C@]2(C)[C@H]1C/C=C(/C=O)CC(OCC)OCC` (stereo partly drawn) [Compound 6, (E)-15,15-diethoxylabda-8(17),12-dien-16-al], which EC50 (GLP-1 receptor; read-out: EC50 (converted)) is on record?
**A.** Its EC50 is 11.6 µM.

**Q.** For `C=C1CCC2C(C)(C)CCC[C@]2(C)[C@H]1C/C=C(/C=O)CCO` (stereo partly drawn) [Compound 5, (E)-labda-8(17),12-diene-15-ol-16-al], which EC50 (GLP-1 receptor; read-out: EC50 (converted)) is on record?
**A.** Its EC50 is 8.14 µM.

**Q.** With `C=C1CCC2C(C)(C)CCCC2(C)C1C1C=C(C=O)CC(O)OO1` (stereo not drawn) [Compound 3, Coronarin B] as the molecule, how does the “insulin secretion with exendin-4” value (RINm5F cells; exendin-4 5 nM) read?
**A.** The value was “stimulate more insulin secretions”.

**Q.** What about the “effect on insulin secretion” value (RINm5F cells) of the same molecule?
**A.** The value was “substantially abolished”.

**Q.** What about the EC50 (GLP-1 receptor; read-out: EC50 (converted)) of the same molecule?
**A.** The EC50 was 0.196 µM.

**Q.** What about the “GLP-1 potentiator activity (in words)” value (GLP-1 receptor; summary of FIG. 3 results) of the same molecule?
**A.** The value was “most potent”.

Reference: US9150482B2 (Development Center for Biotechnology, priority 2012, dated 2015)
